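Growth conditions: 96-well plates. Treatment: test compound, 48 hours, 5 concentrations. Analysis: linear interpolation between bracketing concentrations; unreached endpoints set to highest concentration. TGI is the concentration that stops growth completely.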 Where a SMILES comes first, the peptide text is derived from it. The star is where a group is joined. Cbz = O=C(OCc1ccccc1)*
How the values were obtained:
Experiment in all cases: DTP human tumour cell line panel, 48 h
MDA-MB-231 breast = tested on: MDA-MB-231 breast
UACC-62 melanoma = tested on: UACC-62 melanoma
UO-31 renal = tested on: UO-31 renal
DU-145 prostate = tested on: DU-145 prostate
BT-549 breast = tested on: BT-549 breast
NCI-H522 lung = tested on: NCI-H522 lung
SNB-19 CNS = tested on: SNB-19 CNS
COLO 205 colon = tested on: COLO 205 colon
SF-268 CNS = tested on: SF-268 CNS
SR leukemia = tested on: SR leukemia
HCT-116 colon = tested on: HCT-116 colon
A549 NSCLC = tested on: A549 NSCLC
OVCAR-3 ovarian = tested on: OVCAR-3 ovarian
UACC-257 melanoma = tested on: UACC-257 melanoma
HCT-15 colon = tested on: HCT-15 colon
NCI-H460 lung = tested on: NCI-H460 lung
MDA-MB-435 = tested on: MDA-MB-435
SK-MEL-5 melanoma = tested on: SK-MEL-5 melanoma
RPMI-8226 leukemia = tested on: RPMI-8226 leukemia
NCI/ADR-RES ovarian = tested on: NCI/ADR-RES ovarian
TK-10 renal = tested on: TK-10 renal
MDA-N = tested on: MDA-N
MALME-3M melanoma = tested on: MALME-3M melanoma
KM12 colon = tested on: KM12 colon
NCI-H23 lung = tested on: NCI-H23 lung
CAKI-1 renal = tested on: CAKI-1 renal
RXF 393 renal = tested on: RXF 393 renal
OVCAR-5 ovarian = tested on: OVCAR-5 ovarian
T-47D breast = tested on: T-47D breast
HOP-62 NSCLC = tested on: HOP-62 NSCLC
HCC-2998 colon = tested on: HCC-2998 colon
HT29 colon = tested on: HT29 colon
SW-620 colon = tested on: SW-620 colon
M14 melanoma = tested on: M14 melanoma
K-562 leukemia = tested on: K-562 leukemia
786-0 renal = tested on: 786-0 renal
SK-MEL-28 melanoma = tested on: SK-MEL-28 melanoma
ACHN renal = tested on: ACHN renal
SK-OV-3 ovarian = tested on: SK-OV-3 ovarian
U251 CNS = tested on: U251 CNS
MCF7 breast = tested on: MCF7 breast
SF-295 CNS = tested on: SF-295 CNS
MOLT-4 leukemia = tested on: MOLT-4 leukemia
SN12C renal = tested on: SN12C renal
OVCAR-8 ovarian = tested on: OVCAR-8 ovarian
HS 578T breast = tested on: HS 578T breast
PC-3 prostate = tested on: PC-3 prostate
IGROV1 ovarian = tested on: IGROV1 ovarian
SK-MEL-2 melanoma = tested on: SK-MEL-2 melanoma
SF-539 CNS = tested on: SF-539 CNS
NCI-H226 lung = tested on: NCI-H226 lung
EKVX NSCLC = tested on: EKVX NSCLC
HOP-92 NSCLC = tested on: HOP-92 NSCLC
A498 renal = tested on: A498 renal
CCRF-CEM leukemia = tested on: CCRF-CEM leukemia
LOX IMVI melanoma = tested on: LOX IMVI melanoma
OVCAR-4 ovarian = tested on: OVCAR-4 ovarian
SNB-75 CNS = tested on: SNB-75 CNS

## CC(NC(=O)C(NC(=O)OCc1ccccc1)C(C)C)C(=O)NCC(=O)O (stereo not drawn) (Cbz-Val-Ala-Gly-OH; configuration not given here)
MDA-MB-231 breast
  TGI: > 100 µM
UACC-62 melanoma
  TGI: > 100 µM
UO-31 renal
  TGI: > 100 µM
DU-145 prostate
  TGI: > 100 µM
BT-549 breast
  TGI: > 100 µM
NCI-H522 lung
  TGI: > 100 µM
SNB-19 CNS
  TGI: > 100 µM
COLO 205 colon
  TGI: > 100 µM
SF-268 CNS
  TGI: > 100 µM
SR leukemia
  TGI: > 100 µM
HCT-116 colon
  TGI: > 100 µM
A549 NSCLC
  TGI: > 100 µM
OVCAR-3 ovarian
  TGI: > 100 µM
UACC-257 melanoma
  TGI: > 100 µM
HCT-15 colon
  TGI: > 100 µM
NCI-H460 lung
  TGI: > 100 µM
MDA-MB-435
  TGI: > 100 µM
SK-MEL-5 melanoma
  TGI: > 100 µM
RPMI-8226 leukemia
  TGI: > 100 µM
NCI/ADR-RES ovarian
  TGI: > 100 µM
TK-10 renal
  TGI: > 100 µM
MDA-N
  TGI: > 100 µM
MALME-3M melanoma
  TGI: > 100 µM
KM12 colon
  TGI: > 100 µM
NCI-H23 lung
  TGI: > 100 µM
CAKI-1 renal
  TGI: > 100 µM
RXF 393 renal
  TGI: > 100 µM
OVCAR-5 ovarian
  TGI: > 100 µM
T-47D breast
  TGI: > 100 µM
HOP-62 NSCLC
  TGI: > 100 µM
HCC-2998 colon
  TGI: > 100 µM
HT29 colon
  TGI: > 100 µM
SW-620 colon
  TGI: > 100 µM
M14 melanoma
  TGI: > 100 µM
K-562 leukemia
  TGI: > 100 µM
786-0 renal
  TGI: > 100 µM
SK-MEL-28 melanoma
  TGI: > 100 µM
ACHN renal
  TGI: > 100 µM
SK-OV-3 ovarian
  TGI: > 100 µM
U251 CNS
  TGI: > 100 µM
MCF7 breast
  TGI: > 100 µM
SF-295 CNS
  TGI: > 100 µM
MOLT-4 leukemia
  TGI: > 100 µM
SN12C renal
  TGI: > 100 µM
OVCAR-8 ovarian
  TGI: > 100 µM
HS 578T breast
  TGI: > 100 µM
PC-3 prostate
  TGI: > 100 µM
IGROV1 ovarian
  TGI: > 100 µM
SK-MEL-2 melanoma
  TGI: > 100 µM
SF-539 CNS
  TGI: > 100 µM
NCI-H226 lung
  TGI: > 100 µM
EKVX NSCLC
  TGI: > 100 µM
HOP-92 NSCLC
  TGI: > 100 µM

## CC(C)C(C/C=C1\CC(CO)(COC(=O)C(C)(C)C)OC1=O)C(C)C (stereo not given)
MDA-MB-231 breast
  TGI: 21.7 µM
UACC-62 melanoma
  TGI: 31.3 µM
A498 renal
  TGI: 28.7 µM
UO-31 renal
  TGI: 18.3 µM
DU-145 prostate
  TGI: 19.6 µM
BT-549 breast
  TGI: 24.5 µM
NCI-H522 lung
  TGI: 29 µM
CCRF-CEM leukemia
  TGI: 42.7 µM
SNB-19 CNS
  TGI: 26 µM
COLO 205 colon
  TGI: 11.4 µM
SF-268 CNS
  TGI: 27.7 µM
SR leukemia
  TGI: > 100 µM
HCT-116 colon
  TGI: 22.7 µM
A549 NSCLC
  TGI: 16.6 µM
OVCAR-3 ovarian
  TGI: 26.4 µM
UACC-257 melanoma
  TGI: 32.6 µM
HCT-15 colon
  TGI: 29.8 µM
NCI-H460 lung
  TGI: 31 µM
MDA-MB-435
  TGI: 25.3 µM
SK-MEL-5 melanoma
  TGI: 20 µM
LOX IMVI melanoma
  TGI: 17.7 µM
NCI/ADR-RES ovarian
  TGI: 32.4 µM
TK-10 renal
  TGI: 21.1 µM
MDA-N
  TGI: 17.6 µM
OVCAR-4 ovarian
  TGI: 31.9 µM
MALME-3M melanoma
  TGI: 23.5 µM
KM12 colon
  TGI: 28.2 µM
NCI-H23 lung
  TGI: 19.7 µM
CAKI-1 renal
  TGI: 21.7 µM
RXF 393 renal
  TGI: 33.5 µM
OVCAR-5 ovarian
  TGI: 25.4 µM
T-47D breast
  TGI: 34.9 µM
HOP-62 NSCLC
  TGI: 20.4 µM
HCC-2998 colon
  TGI: 24.8 µM
HT29 colon
  TGI: 49.6 µM
SW-620 colon
  TGI: 17.1 µM
SNB-75 CNS
  TGI: 15.2 µM
M14 melanoma
  TGI: 29.8 µM
K-562 leukemia
  TGI: 44.9 µM
786-0 renal
  TGI: 14.7 µM
SK-MEL-28 melanoma
  TGI: 26.4 µM
ACHN renal
  TGI: 24.4 µM
SK-OV-3 ovarian
  TGI: 29 µM
U251 CNS
  TGI: 29.8 µM
MCF7 breast
  TGI: 37.6 µM
SF-295 CNS
  TGI: 18.1 µM
MOLT-4 leukemia
  TGI: 25 µM
SN12C renal
  TGI: 19.8 µM
OVCAR-8 ovarian
  TGI: 31.1 µM
HS 578T breast
  TGI: 11.8 µM
PC-3 prostate
  TGI: 20.9 µM
IGROV1 ovarian
  TGI: 29.4 µM
SK-MEL-2 melanoma
  TGI: 39.5 µM
SF-539 CNS
  TGI: 20.9 µM
NCI-H226 lung
  TGI: 19.8 µM
EKVX NSCLC
  TGI: 24.8 µM
HOP-92 NSCLC
  TGI: 25 µM

— PubChem BioAssay (NCI)
